# In publication PMC9315260, “Diarylamine-Guided Carboxamide Derivatives: Synthesis, Biological Evaluation, and Potential Mechanism of Action” (Frontiers in Chemistry, 2022):
# “Also recorded” adds a separate entry of the source.
# Columns and labels:
# [1] = tested on: SGC-7901 (human gastric cancer cell line); experiment: MTT in vitro cytotoxicity assay, SGC-7901; type: cell-based; settings: for IC50: SGC-7901, Table 3, MTT, mean ± S.D.; for inhibition at 100 µM: SGC-7901, at 100 µM, read-out: Cell growth inhibition (%) SGC-7901
# Method: (§1) The lead molecules A2 and all newly prepared diarylamine derivatives B1-13 and C1-11 were evaluated for their in vitro cytotoxic effects against SGC-7901, A875, HepG2 and MARC145 cell lines by the classical MTT [3-(4,5-dimethylthiazol-2-yl)-2,5-diphenyl tetrazolium bromide] assay ([Alley et al., 1988]; [Ke et al., 2012]; [Shi et al., 2012]; [Yu et al., 2015]; [Ke et al., 2019]; [Xu et al., 2019]; [Huang et al., 2021]) using 5-FU (5-Fluorouracil) as a control.
# (§2) The cytotoxicity of target compounds was determined with MTT assay ([Alley et al., 1988]; [Ke et al., 2012]; [Shi et al., 2012]; [Yu et al., 2015]; [Ke et al., 2019]; [Xu et al., 2019]; [Huang et al., 2021]). SGC-7901, A875, HepG2 and MARC145 cell lines were obtained from Hubei Biopesticide Engineering Research Centre. All data of the experiment were analyzed with SPSS software, and all assay were performed in triplicate on three independent experiments, and measurement data were expressed as the mean ± S.D.
# (§3) The in vitro cytotoxicity of the synthesized compounds against different cell lines (SGC-7901, A875, HepG2 and MARC145) was measured with MTT assay. All the data of the experiment were analyzed with SPSS software, and the 50% inhibitory concentrations (IC50) of each compound for the different cell lines were determined. A control was run for each test, and all assays were performed in triplicate on three independent experiments, and measurement data were expressed as the mean ± S.D.
# [2] = tested on: A875 (human melanoma cell line); experiment: MTT in vitro cytotoxicity assay, A875; type: cell-based; settings: for IC50: A875, Table 3, MTT, mean ± S.D.; for inhibition at 100 µM: A875, at 100 µM, read-out: Cell growth inhibition (%) A875
# Method: as §1, §2, §3
# [3] = MTT in vitro cytotoxicity assay, MARC145; type: cell-based, African green monkey; settings: African green monkey, MARC145 cells (kidney cell line, subclone of MA-104), Table 3; MTT; mean ± S.D.
# Method: as §1, §2, §3
# [4] = tested on: MARC145 (subclone of African green monkey kidney cell line MA-104); experiment: MTT in vitro cytotoxicity assay, MARC145; type: cell-based; settings: at 100 µM; for inhibition at 100 µM: Chlorocebus sabaeus, MARC145, read-out: Cell growth inhibition (%) MARC145
# Method: as §1, §2, §3
# [5] = tested on: SGC-7901, A875, HepG2 and MARC145 cell lines; experiment: MTT in vitro cytotoxicity assay, statements over the whole cell panel; type: cell-based; settings: for cytotoxic effect / inhibition activity in words: IC50-based judgement, compared with 5-FU; for inhibition activity in preliminary screening, in words: at 100 µM, inhibition rate higher than control 5-FU
# Method: as §1, §2, §3
# A875 cells = experiment: Annexin V-FITC/PI dual staining flow cytometry; type: cell-based, human; settings: for apoptotic rate: 24 h, 2×IC50 concentration, FITC(+)PI(−); for apoptosis induction, in words: 24 h treatment
# Method: Apoptosis induction is one of the important modes of action for antitumor drugs.
# Quantitative analysis of apoptotic and necrotic cell death induced by potential molecules was investigated using Annexin V-FITC/PI dual staining assay ([Yu et al., 2015]; [Huang et al., 2021]).
# Quantitative analysis of apoptotic and necrotic cell death induced by the test compounds was performed by Annexin V-FITC apoptosis detection kit according to the manufacturer’s instructions (Abcam). Briefly, 2×10^5 A875 cells were seeded in 6-well plates and grown overnight. […] Cells treated with 0.1% DMSO were served as solvent control. Following treatment cells were harvested, washed twice with ice-cold PBS and resuspended in binding buffer. Then the cells were stained by adding 5 µl of Annexin V-FITC and 5 µl of propidium iodide, sit for 5 min at room temperature in the dark and analyzed by flow cytometry (Beckman coulter FC500).
# AKT1 = AKT1 (Homo sapiens, UniProt P31749); experiment: ADP-GLO kinase inhibitory assay, AKT1; type: biochemical
# Method: (§4) Based on the aforementioned results for the potential mechanism of action, the kinase inhibitory profile of compounds C6 and C11 were screened at two dose concentration of 10 and 1 µM over a panel of 15 kinases, and the kinase inhibitory activities are listed in supporting information (Supplementary Table S1).
# (§5) The kinase inhibitory profile of compounds C6 and C11 were screened at two dose concentration of 10 and 1 µM over a panel of 15 kinases, and each assay was repeated twice. All the inhibitory assays were carried out through kinase profiling services provided by HY Biotech (Chinese), in which ADP-GLO kinase assays were used.
# as §5, with “10 µM” for “10”
# AKT3 = AKT3 (Homo sapiens, UniProt Q9Y243); experiment: ADP-GLO kinase inhibitory assay, AKT3; type: biochemical
# Method: as §4, §5
# as §5, with “10 µM” for “10”
# CHK1 = target: T1, CHK1 (Homo sapiens, UniProt O14757); experiment: ADP-GLO kinase inhibitory assay, CHK1; type: biochemical
# T1 sequence (O14757 1-476): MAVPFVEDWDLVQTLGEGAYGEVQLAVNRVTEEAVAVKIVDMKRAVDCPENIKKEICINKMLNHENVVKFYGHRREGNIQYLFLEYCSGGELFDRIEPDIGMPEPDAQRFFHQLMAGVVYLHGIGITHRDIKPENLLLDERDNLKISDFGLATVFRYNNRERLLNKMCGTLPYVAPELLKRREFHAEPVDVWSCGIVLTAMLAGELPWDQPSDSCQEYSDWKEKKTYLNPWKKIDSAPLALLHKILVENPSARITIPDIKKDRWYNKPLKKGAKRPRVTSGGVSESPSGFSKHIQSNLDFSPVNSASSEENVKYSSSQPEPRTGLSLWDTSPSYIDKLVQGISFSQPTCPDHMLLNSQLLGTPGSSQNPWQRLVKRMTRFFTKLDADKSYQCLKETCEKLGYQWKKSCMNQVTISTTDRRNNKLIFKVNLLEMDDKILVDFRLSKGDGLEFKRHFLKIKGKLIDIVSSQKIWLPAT
# Method: as §4, §5
# as §5, with “10 µM” for “10”
# CDK1/A2 = CDK1/A2 (Homo sapiens, UniProt P06493); experiment: ADP-GLO kinase inhibitory assay, CDK1/A2; type: biochemical
# Method: as §4, §5
# as §5, with “10 µM” for “10”
# MAPK1 = MAPK1 (Homo sapiens, UniProt P28482); experiment: ADP-GLO kinase inhibitory assay, MAPK1; type: biochemical; settings: for inhibition of MAPK1, in words: at 1 μM
# Method: as §4, §5
# as §5, with “10 µM” for “10”
# ERK1 = ERK1 (Homo sapiens, UniProt P27361); experiment: ADP-GLO kinase inhibitory assay, ERK1; type: biochemical
# Method: as §4, §5
# as §5, with “10 µM” for “10”
# PIM1 = PIM1 (Homo sapiens, UniProt P11309); experiment: ADP-GLO kinase inhibitory assay, PIM1; type: biochemical
# Method: as §4, §5
# as §5, with “10 µM” for “10”
# AKT1, sequence (P31749 whole entry, species assumed): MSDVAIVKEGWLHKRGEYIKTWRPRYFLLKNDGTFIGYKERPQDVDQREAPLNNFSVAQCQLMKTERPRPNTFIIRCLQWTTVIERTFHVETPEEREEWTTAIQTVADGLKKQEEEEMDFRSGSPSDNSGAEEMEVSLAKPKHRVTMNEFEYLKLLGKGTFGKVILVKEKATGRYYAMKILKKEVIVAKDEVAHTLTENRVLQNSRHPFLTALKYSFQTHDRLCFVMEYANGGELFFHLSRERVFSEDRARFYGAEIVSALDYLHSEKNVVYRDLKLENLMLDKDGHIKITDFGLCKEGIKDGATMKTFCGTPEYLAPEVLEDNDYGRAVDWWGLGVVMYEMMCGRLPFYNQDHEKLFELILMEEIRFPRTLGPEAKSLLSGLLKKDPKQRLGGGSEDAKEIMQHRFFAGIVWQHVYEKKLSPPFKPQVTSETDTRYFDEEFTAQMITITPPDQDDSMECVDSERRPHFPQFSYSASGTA
# CDK1/A2, sequence (P06493 whole entry, species assumed): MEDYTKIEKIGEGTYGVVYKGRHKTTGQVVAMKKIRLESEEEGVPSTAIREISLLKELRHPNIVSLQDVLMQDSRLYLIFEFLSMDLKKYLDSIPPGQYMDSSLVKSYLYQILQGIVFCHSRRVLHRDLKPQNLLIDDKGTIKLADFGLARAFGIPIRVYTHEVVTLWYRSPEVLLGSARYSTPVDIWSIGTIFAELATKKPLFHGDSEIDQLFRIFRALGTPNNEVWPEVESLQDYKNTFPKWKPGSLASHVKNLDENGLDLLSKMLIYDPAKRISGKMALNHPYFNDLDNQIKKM
# CDK1/A2, sequence (P20248 whole entry partner, species assumed): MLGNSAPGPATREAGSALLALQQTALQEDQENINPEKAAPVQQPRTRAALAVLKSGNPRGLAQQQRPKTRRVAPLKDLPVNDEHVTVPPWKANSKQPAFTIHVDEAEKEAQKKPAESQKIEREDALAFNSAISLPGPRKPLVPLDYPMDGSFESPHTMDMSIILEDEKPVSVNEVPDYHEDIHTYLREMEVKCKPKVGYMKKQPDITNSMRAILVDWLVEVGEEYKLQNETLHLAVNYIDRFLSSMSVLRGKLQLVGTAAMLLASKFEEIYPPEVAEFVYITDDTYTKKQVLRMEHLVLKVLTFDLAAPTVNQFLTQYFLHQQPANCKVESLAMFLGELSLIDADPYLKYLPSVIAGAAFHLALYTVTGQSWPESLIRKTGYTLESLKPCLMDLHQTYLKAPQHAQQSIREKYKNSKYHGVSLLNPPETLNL
# PIM1, sequence (P11309 whole entry, species assumed): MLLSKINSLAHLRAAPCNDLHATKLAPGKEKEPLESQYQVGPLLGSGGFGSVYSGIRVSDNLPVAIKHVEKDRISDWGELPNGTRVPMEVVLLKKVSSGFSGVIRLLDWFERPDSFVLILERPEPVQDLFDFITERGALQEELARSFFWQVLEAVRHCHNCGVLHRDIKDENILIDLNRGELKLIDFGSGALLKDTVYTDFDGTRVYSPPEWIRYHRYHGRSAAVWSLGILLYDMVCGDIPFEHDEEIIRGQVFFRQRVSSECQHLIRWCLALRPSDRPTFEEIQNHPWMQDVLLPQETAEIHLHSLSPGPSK
# AKT3, sequence (Q9Y243 whole entry, species assumed): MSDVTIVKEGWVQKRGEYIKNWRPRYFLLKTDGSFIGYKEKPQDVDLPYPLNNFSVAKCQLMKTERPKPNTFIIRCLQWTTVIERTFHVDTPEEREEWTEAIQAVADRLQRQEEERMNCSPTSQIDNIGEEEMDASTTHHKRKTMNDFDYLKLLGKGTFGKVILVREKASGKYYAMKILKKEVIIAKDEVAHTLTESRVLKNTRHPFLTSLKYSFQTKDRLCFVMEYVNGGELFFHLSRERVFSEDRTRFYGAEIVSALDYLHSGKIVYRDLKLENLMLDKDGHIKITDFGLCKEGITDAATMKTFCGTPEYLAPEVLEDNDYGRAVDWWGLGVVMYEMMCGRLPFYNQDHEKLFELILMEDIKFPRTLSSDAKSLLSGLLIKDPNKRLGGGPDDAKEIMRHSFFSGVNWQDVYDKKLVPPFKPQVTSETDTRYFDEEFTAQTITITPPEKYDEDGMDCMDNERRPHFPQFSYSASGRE
# ERK1, sequence (P27361 whole entry, species assumed): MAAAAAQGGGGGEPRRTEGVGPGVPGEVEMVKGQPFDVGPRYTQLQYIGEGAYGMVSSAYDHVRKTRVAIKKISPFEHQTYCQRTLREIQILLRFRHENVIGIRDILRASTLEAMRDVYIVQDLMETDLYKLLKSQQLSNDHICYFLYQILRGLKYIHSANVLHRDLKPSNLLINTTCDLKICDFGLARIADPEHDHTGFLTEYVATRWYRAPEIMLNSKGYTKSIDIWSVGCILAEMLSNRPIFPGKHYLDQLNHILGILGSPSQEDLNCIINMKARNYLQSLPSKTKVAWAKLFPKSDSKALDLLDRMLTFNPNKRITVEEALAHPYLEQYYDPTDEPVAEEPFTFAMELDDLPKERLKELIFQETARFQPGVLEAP
# MAPK1, sequence (P28482 whole entry, species assumed): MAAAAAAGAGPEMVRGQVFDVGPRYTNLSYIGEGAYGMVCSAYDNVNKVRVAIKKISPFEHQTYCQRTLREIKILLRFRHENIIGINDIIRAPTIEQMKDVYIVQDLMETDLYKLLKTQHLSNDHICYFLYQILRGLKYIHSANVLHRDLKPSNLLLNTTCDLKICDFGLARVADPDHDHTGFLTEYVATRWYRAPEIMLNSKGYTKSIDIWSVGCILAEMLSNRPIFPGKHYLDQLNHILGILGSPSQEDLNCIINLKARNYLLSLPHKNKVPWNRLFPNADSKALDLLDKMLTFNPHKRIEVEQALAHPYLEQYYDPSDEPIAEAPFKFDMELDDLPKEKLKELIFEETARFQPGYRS
Compound,IC50 [1],inhibition at 100 µM [1],IC50 [2],inhibition at 100 µM [2],IC50 [3],inhibition at 100 µM [4],cytotoxic effect / inhibition activity in words [5],"dose-response analysis of cell growth inhibition, in words ([5]; SGC-7901, A875, HepG2, MARC145)","inhibition activity in preliminary screening, in words [5]",apoptotic rate (A875 cells),"apoptosis induction, in words (A875 cells)",inhibition at 1 µM (AKT1),inhibition at 10 µM (AKT1),inhibition at 1 µM (AKT3),inhibition at 10 µM (AKT3),inhibition at 1 µM (CHK1),inhibition at 10 µM (CHK1),inhibition at 1 µM (CDK1/A2),inhibition at 10 µM (CDK1/A2),inhibition at 1 µM (MAPK1),other results
"O=C(Nc1cccc(C(F)(F)F)c1)c1cccnc1Nc1cccc(C(F)(F)F)c1 [C6, N-(3-(Trifluoromethyl)phenyl)-2-((3-(trifluoromethyl)phenyl)amino)nicotinamide]",5.53 ± 0.82 µM,90.5 ± 3.8%,12.8 ± 1.99 µM,91.5 ± 2.9%,9.72 ± 2.75 µM,89.8 ± 3.4%,good cytotoxic effect; also recorded: higher inhibition activities compared to the control 5-FU,significant concentration dependence,good inhibition activity,12%,induced apoptotic changes,10.4%,-6.77%,16.1%,-2.65%,10.2%,-0.18%,1.55%,-3.82%,28.8%,"IC50 ([5]; SGC-7901, A875, HepG2, MARC145, read-out: IC50 values, span over the tested cell lines): 5.53 to 12.8 µM; inhibition at 10 µM (MAPK1): 17.6%; inhibition of MAPK1, in words (MAPK1): certain inhibitions; inhibition at 1 µM (ERK1): 6.76%; inhibition at 10 µM (ERK1): -6.1%; inhibition at 1 µM (PIM1): 12.8%; inhibition at 10 µM (PIM1): 15.8%"
"O=C(Nc1ccc(Cl)nc1)c1cccnc1Nc1cccc(C(F)(F)F)c1 [C11, N-(6-Chloropyridin-3-yl)-2-((3-(trifluoromethyl)phenyl)amino)nicotinamide]",9.13 ± 3.52 µM,85.6 ± 4.3%,12.3 ± 4.16 µM,90.5 ± 3.7%,> 102 µM,27.1 ± 3.6%,good cytotoxic effect; also recorded: higher inhibition activities compared to the control 5-FU,significant concentration dependence,good inhibition activity,27%,induced apoptotic changes,13.3%,-5.21%,20.1%,-0.49%,19.5%,3.66%,38.2%,-7.23%,24.4%,"inhibition on normal cell lines (MARC145), in words [4]: low inhibition; inhibition of CDK1/A2, in words (CDK1/A2; at 1 μM): some inhibitions; inhibition at 10 µM (MAPK1): 7.96%; inhibition of MAPK1, in words (MAPK1): some inhibitions; inhibition at 1 µM (ERK1): 18.2%; inhibition at 10 µM (ERK1): 3.07%; inhibition at 1 µM (PIM1): 23.1%; inhibition at 10 µM (PIM1): 10.3%"
